# Experimental data from publication PMC11087268, “A folate inhibitor exploits metabolic differences in Pseudomonas aeruginosa for narrow-spectrum targeting” (Nature Microbiology, 2024).
# Read-outs that look alike come from different tables or passages of the source.
# Legend:
# Format in all cases: cell-based, Pseudomonas aeruginosa
# [1] = tested on: P. aeruginosa PA14; conditions: PA14, 4× MIC plates
# [2] = tested on: P. aeruginosa PA14; assay: Colony-forming units counting after antibiotic treatment; conditions: for PA14 CFU/mL, Mean: 2× MIC (fluorofolin 6.2, TMP 250, polymixin B 4 μg ml^−1)
# Protocol: P. aeruginosa PA14 overnight cultures were diluted 1:100 and grown to exponential phase (OD600 = 0.4–0.6). Cultures were diluted 1:10 and treated with antibiotic. At each time point, 150 μl of culture was removed, serial diluted 1:10 six times and plated onto LB agar plates. Plates were grown overnight at 37 °C, after which visible colonies were counted. C.f.u.s ml^−1 are reported from dilutions in which ~10–100 single colonies were visible.
# [3] = tested on: P. aeruginosa PA14; assay: Growth of P. aeruginosa PA14 in TMI-supplemented media with fluorofolin
# [4] = tested on: P. aeruginosa clinical isolates
# Protocol: Percent growth was calculated by dividing the OD600 of fluorofolin antibiotic-treated wells by that of vehicle-only wells.
smiles,measurement,setting,value
Nc1nc(N)c2c(ccc3c2ccn3Cc2ccnc(F)c2)n1 [fluorofolin],resistance frequency compared between antibiotics,[1],significantly lower resistance frequency than meropenem
same,type of antibacterial activity,"[2]; PA14, rich media",bacteriostatic
same,"PA14 CFU/mL, Mean",[2]; Time 0 h,197000 CFU/mL
same,"PA14 CFU/mL, Mean",[2]; Time 1 h,211000 CFU/mL
same,"PA14 CFU/mL, Mean",[2]; Time 2 h,171000 CFU/mL
same,"PA14 CFU/mL, Mean",[2]; Time 4 h,206667 CFU/mL
same,OD600 of P. Aeruginosa PA14,"[3]; Fluorofolin + TMI, Time 0 min",0.00375
same,OD600 of P. Aeruginosa PA14,"[3]; Fluorofolin + TMI, Time 64.0617 min",0.00775
same,OD600 of P. Aeruginosa PA14,"[3]; Fluorofolin + TMI, Time 74.7383 min",0.00825
same,OD600 of P. Aeruginosa PA14,"[3]; Fluorofolin + TMI, Time 85.415 min",0.0086
same,OD600 of P. Aeruginosa PA14,"[3]; Fluorofolin + TMI, Time 96.0917 min",0.0088
same,OD600 of P. Aeruginosa PA14,"[3]; Fluorofolin + TMI, Time 106.768 min",0.00895
same,OD600 of P. Aeruginosa PA14,"[3]; Fluorofolin + TMI, Time 117.445 min",0.00965
same,OD600 of P. Aeruginosa PA14,"[3]; Fluorofolin + TMI, Time 128.123 min",0.00995
same,OD600 of P. Aeruginosa PA14,"[3]; Fluorofolin + TMI, Time 138.8 min",0.0106
same,OD600 of P. Aeruginosa PA14,"[3]; Fluorofolin + TMI, Time 149.477 min",0.01185
same,OD600 of P. Aeruginosa PA14,"[3]; Fluorofolin + TMI, Time 160.153 min",0.0109
same,OD600 of P. Aeruginosa PA14,"[3]; Fluorofolin + TMI, Time 170.83 min",0.01125
same,OD600 of P. Aeruginosa PA14,"[3]; Fluorofolin + TMI, Time 181.507 min",0.01245
same,OD600 of P. Aeruginosa PA14,"[3]; Fluorofolin + TMI, Time 192.183 min",0.01295
same,OD600 of P. Aeruginosa PA14,"[3]; Fluorofolin + TMI, Time 202.86 min",0.0136
same,OD600 of P. Aeruginosa PA14,"[3]; Fluorofolin + TMI, Time 213.537 min",0.01355
same,OD600 of P. Aeruginosa PA14,"[3]; Fluorofolin + TMI, Time 224.213 min",0.01385
same,OD600 of P. Aeruginosa PA14,"[3]; Fluorofolin + TMI, Time 234.89 min",0.0143
same,OD600 of P. Aeruginosa PA14,"[3]; Fluorofolin + TMI, Time 245.567 min",0.0154
same,OD600 of P. Aeruginosa PA14,"[3]; Fluorofolin + TMI, Time 256.243 min",0.01575
same,OD600 of P. Aeruginosa PA14,"[3]; Fluorofolin + TMI, Time 266.922 min",0.0155
same,OD600 of P. Aeruginosa PA14,"[3]; Fluorofolin + TMI, Time 277.598 min",0.0159
same,OD600 of P. Aeruginosa PA14,"[3]; Fluorofolin + TMI, Time 288.275 min",0.01755
same,OD600 of P. Aeruginosa PA14,"[3]; Fluorofolin + TMI, Time 298.952 min",0.01775
same,OD600 of P. Aeruginosa PA14,"[3]; Fluorofolin + TMI, Time 309.628 min",0.01825
same,OD600 of P. Aeruginosa PA14,"[3]; Fluorofolin + TMI, Time 320.305 min",0.0182
same,OD600 of P. Aeruginosa PA14,"[3]; Fluorofolin + TMI, Time 330.982 min",0.0183
same,OD600 of P. Aeruginosa PA14,"[3]; Fluorofolin + TMI, Time 341.658 min",0.0174
same,OD600 of P. Aeruginosa PA14,"[3]; Fluorofolin + TMI, Time 352.335 min",0.01685
same,OD600 of P. Aeruginosa PA14,"[3]; Fluorofolin + TMI, Time 363.012 min",0.01765
same,OD600 of P. Aeruginosa PA14,"[3]; Fluorofolin + TMI, Time 373.688 min",0.01775
same,OD600 of P. Aeruginosa PA14,"[3]; Fluorofolin + TMI, Time 384.365 min",0.01795
same,OD600 of P. Aeruginosa PA14,"[3]; Fluorofolin + TMI, Time 395.042 min",0.01805
same,OD600 of P. Aeruginosa PA14,"[3]; Fluorofolin + TMI, Time 405.718 min",0.01805
same,OD600 of P. Aeruginosa PA14,"[3]; Fluorofolin + TMI, Time 416.395 min",0.01825
same,OD600 of P. Aeruginosa PA14,"[3]; Fluorofolin + TMI, Time 427.072 min",0.01805
same,OD600 of P. Aeruginosa PA14,"[3]; Fluorofolin + TMI, Time 437.748 min",0.01825
same,OD600 of P. Aeruginosa PA14,"[3]; Fluorofolin + TMI, Time 448.425 min",0.018
same,OD600 of P. Aeruginosa PA14,"[3]; Fluorofolin + TMI, Time 459.102 min",0.0175
same,OD600 of P. Aeruginosa PA14,"[3]; Fluorofolin + TMI, Time 469.78 min",0.01855
same,OD600 of P. Aeruginosa PA14,"[3]; Fluorofolin + TMI, Time 480.457 min",0.0181
same,OD600 of P. Aeruginosa PA14,"[3]; Fluorofolin + TMI, Time 491.133 min",0.01785
same,OD600 of P. Aeruginosa PA14,"[3]; Fluorofolin + TMI, Time 501.81 min",0.01825
same,OD600 of P. Aeruginosa PA14,"[3]; Fluorofolin + TMI, Time 512.487 min",0.0184
same,OD600 of P. Aeruginosa PA14,"[3]; Fluorofolin + TMI, Time 523.163 min",0.01965
same,OD600 of P. Aeruginosa PA14,"[3]; Fluorofolin + TMI, Time 533.84 min",0.0189
same,OD600 of P. Aeruginosa PA14,"[3]; Fluorofolin + TMI, Time 544.517 min",0.0184
same,OD600 of P. Aeruginosa PA14,"[3]; Fluorofolin + TMI, Time 555.193 min",0.01805
same,OD600 of P. Aeruginosa PA14,"[3]; Fluorofolin + TMI, Time 565.87 min",0.0187
same,OD600 of P. Aeruginosa PA14,"[3]; Fluorofolin + TMI, Time 576.547 min",0.01815
same,OD600 of P. Aeruginosa PA14,"[3]; Fluorofolin, Time 0 min",-0.00105
same,OD600 of P. Aeruginosa PA14,"[3]; Fluorofolin, Time 64.0617 min",0.00425
same,OD600 of P. Aeruginosa PA14,"[3]; Fluorofolin, Time 74.7383 min",0.0047
same,OD600 of P. Aeruginosa PA14,"[3]; Fluorofolin, Time 85.415 min",0.00495
same,OD600 of P. Aeruginosa PA14,"[3]; Fluorofolin, Time 96.0917 min",0.00565
same,OD600 of P. Aeruginosa PA14,"[3]; Fluorofolin, Time 106.768 min",0.006
same,OD600 of P. Aeruginosa PA14,"[3]; Fluorofolin, Time 117.445 min",0.0073
same,OD600 of P. Aeruginosa PA14,"[3]; Fluorofolin, Time 128.123 min",0.0085
same,OD600 of P. Aeruginosa PA14,"[3]; Fluorofolin, Time 138.8 min",0.00865
same,OD600 of P. Aeruginosa PA14,"[3]; Fluorofolin, Time 149.477 min",0.0096
same,OD600 of P. Aeruginosa PA14,"[3]; Fluorofolin, Time 160.153 min",0.01045
same,OD600 of P. Aeruginosa PA14,"[3]; Fluorofolin, Time 170.83 min",0.01095
same,OD600 of P. Aeruginosa PA14,"[3]; Fluorofolin, Time 181.507 min",0.01175
same,OD600 of P. Aeruginosa PA14,"[3]; Fluorofolin, Time 192.183 min",0.0127
same,OD600 of P. Aeruginosa PA14,"[3]; Fluorofolin, Time 202.86 min",0.0136
same,OD600 of P. Aeruginosa PA14,"[3]; Fluorofolin, Time 213.537 min",0.01395
same,OD600 of P. Aeruginosa PA14,"[3]; Fluorofolin, Time 224.213 min",0.01515
same,OD600 of P. Aeruginosa PA14,"[3]; Fluorofolin, Time 234.89 min",0.01575
same,OD600 of P. Aeruginosa PA14,"[3]; Fluorofolin, Time 245.567 min",0.0166
same,OD600 of P. Aeruginosa PA14,"[3]; Fluorofolin, Time 256.243 min",0.0165
same,OD600 of P. Aeruginosa PA14,"[3]; Fluorofolin, Time 266.922 min",0.01705
same,OD600 of P. Aeruginosa PA14,"[3]; Fluorofolin, Time 277.598 min",0.01815
same,OD600 of P. Aeruginosa PA14,"[3]; Fluorofolin, Time 288.275 min",0.01805
same,OD600 of P. Aeruginosa PA14,"[3]; Fluorofolin, Time 298.952 min",0.0199
same,OD600 of P. Aeruginosa PA14,"[3]; Fluorofolin, Time 309.628 min",0.0191
same,OD600 of P. Aeruginosa PA14,"[3]; Fluorofolin, Time 320.305 min",0.0205
same,OD600 of P. Aeruginosa PA14,"[3]; Fluorofolin, Time 330.982 min",0.01975
same,OD600 of P. Aeruginosa PA14,"[3]; Fluorofolin, Time 341.658 min",0.0208
same,OD600 of P. Aeruginosa PA14,"[3]; Fluorofolin, Time 352.335 min",0.0206
same,OD600 of P. Aeruginosa PA14,"[3]; Fluorofolin, Time 363.012 min",0.02055
same,OD600 of P. Aeruginosa PA14,"[3]; Fluorofolin, Time 373.688 min",0.0208
same,OD600 of P. Aeruginosa PA14,"[3]; Fluorofolin, Time 384.365 min",0.02105
same,OD600 of P. Aeruginosa PA14,"[3]; Fluorofolin, Time 395.042 min",0.02085
same,OD600 of P. Aeruginosa PA14,"[3]; Fluorofolin, Time 405.718 min",0.02185
same,OD600 of P. Aeruginosa PA14,"[3]; Fluorofolin, Time 416.395 min",0.02155
same,OD600 of P. Aeruginosa PA14,"[3]; Fluorofolin, Time 427.072 min",0.02275
same,OD600 of P. Aeruginosa PA14,"[3]; Fluorofolin, Time 437.748 min",0.02165
same,OD600 of P. Aeruginosa PA14,"[3]; Fluorofolin, Time 448.425 min",0.0225
same,OD600 of P. Aeruginosa PA14,"[3]; Fluorofolin, Time 459.102 min",0.0221
same,OD600 of P. Aeruginosa PA14,"[3]; Fluorofolin, Time 469.78 min",0.0226
same,OD600 of P. Aeruginosa PA14,"[3]; Fluorofolin, Time 480.457 min",0.02355
same,OD600 of P. Aeruginosa PA14,"[3]; Fluorofolin, Time 491.133 min",0.02265
same,OD600 of P. Aeruginosa PA14,"[3]; Fluorofolin, Time 501.81 min",0.02275
same,OD600 of P. Aeruginosa PA14,"[3]; Fluorofolin, Time 512.487 min",0.023
same,OD600 of P. Aeruginosa PA14,"[3]; Fluorofolin, Time 523.163 min",0.02375
same,OD600 of P. Aeruginosa PA14,"[3]; Fluorofolin, Time 533.84 min",0.02255
same,OD600 of P. Aeruginosa PA14,"[3]; Fluorofolin, Time 544.517 min",0.02295
same,OD600 of P. Aeruginosa PA14,"[3]; Fluorofolin, Time 555.193 min",0.0233
same,OD600 of P. Aeruginosa PA14,"[3]; Fluorofolin, Time 565.87 min",0.02345
same,OD600 of P. Aeruginosa PA14,"[3]; Fluorofolin, Time 576.547 min",0.0235
same,rescue of growth inhibition by TMI supplementation,"[3]; P. aeruginosa PA14, 0.3 mM TMI, fluorofolin 2× MIC",unable to rescue
same,isolates inhibited,[4],90%
same,number of isolates inhibited,[4],69
same,sensitivity of isolates with dfrB2,[4],fluorofolin-sensitive
same,number of resistant isolates,"[4]; 22 blood isolates, 50 μg ml^−1",None
same,number of resistant isolates,"[4]; 55 CDC isolates, 50 μg ml^−1",8
same,clinical isolates resistant,"[4]; 77 P. aeruginosa clinical isolates (55 CDC/FDA, 22 blood), 50 μg ml^−1, growth inhibition >80% = sensitive",10.4%
same,sensitivity of carbapenemase isolates,[4]; clinical isolates expressing KPC-5 and NDM-1,remained sensitive
same,clinical isolates resistant,"[4]; earlier manuscript version quoted by reviewers, antibiotic resistance isolate bank only",14.5%
